Data reported in US7875587B2, “Peptide analogues of GIP for treatment of diabetes, insulin resistance and obesity” (UUTECH Limited, priority 2004, dated 2011).

How the values were obtained:
[1] = target: T1, DPP IV (Sus scrofa, UniProt P22411); assay: DPP IV degradation studies of fatty acid derivatised GIP analogues; format: in vitro ADME, porcine; details: pig, isolated enzyme dpp iv, pH 7.8, incubation with DPP IV, read-out: % Intact peptide remaining after time (hours)
T1 construct: purchased Sigma (Poole, Dorset, UK)
T1 sequence (P22411 whole entry): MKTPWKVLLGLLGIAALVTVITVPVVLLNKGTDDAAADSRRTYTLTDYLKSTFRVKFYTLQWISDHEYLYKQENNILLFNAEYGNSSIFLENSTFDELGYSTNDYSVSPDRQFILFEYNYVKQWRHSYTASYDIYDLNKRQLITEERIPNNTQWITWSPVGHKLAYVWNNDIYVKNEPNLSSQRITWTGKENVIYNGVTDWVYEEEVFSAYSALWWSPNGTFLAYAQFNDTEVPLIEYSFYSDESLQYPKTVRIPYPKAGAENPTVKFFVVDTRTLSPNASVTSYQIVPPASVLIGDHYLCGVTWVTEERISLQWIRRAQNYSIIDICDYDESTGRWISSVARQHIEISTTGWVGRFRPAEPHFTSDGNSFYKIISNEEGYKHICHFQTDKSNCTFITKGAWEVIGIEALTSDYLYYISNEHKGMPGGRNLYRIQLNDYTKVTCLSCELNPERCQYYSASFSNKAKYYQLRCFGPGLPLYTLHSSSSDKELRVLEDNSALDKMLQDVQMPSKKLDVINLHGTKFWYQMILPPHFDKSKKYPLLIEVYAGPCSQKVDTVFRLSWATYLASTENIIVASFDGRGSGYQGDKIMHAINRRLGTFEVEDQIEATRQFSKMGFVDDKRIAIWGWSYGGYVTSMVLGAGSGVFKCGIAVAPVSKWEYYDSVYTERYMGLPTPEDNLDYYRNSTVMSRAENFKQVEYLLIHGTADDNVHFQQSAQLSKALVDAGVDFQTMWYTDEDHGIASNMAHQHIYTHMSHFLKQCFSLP
Procedure: (§1) DPP IV degradation studies. GIP and fatty acid derivatised GIP analogues were incubated at 37° C. with purified porcine dipeptidylpeptidase IV (5 mU in 50 mmol/l triethanolamine-HCl; pH 7.8) for 0, 2, 4, 8 and 24 hours (final peptide concentration 2 mmol/l). The reactions were subsequently terminated by addition of 10% (v/v) TFA/water and the reaction products separated using HPLC. […] HPLC peak area data were used to calculate % intact peptide remaining throughout the incubation.

[2] = target: T2, purified porcine dipeptidylpeptidase IV (Sus scrofa, UniProt P22411); assay: as above; format: in vitro ADME; details: incubation with DPP IV
T2 construct: purchased Sigma (Poole, Dorset, UK)
T2 sequence (P22411 whole entry): as above
Procedure: as §1

[3] = target: T3, human GIP receptor (Homo sapiens, UniProt P48546); assay: Intracellular cyclic AMP production in GIP-receptor transfected CHL fibroblasts; format: cell-based
T3 construct: expressed in transfected cells; host or cells: Chinese hamster lung (CHL) fibroblasts, stably transfected
T3 sequence (P48546 22-466): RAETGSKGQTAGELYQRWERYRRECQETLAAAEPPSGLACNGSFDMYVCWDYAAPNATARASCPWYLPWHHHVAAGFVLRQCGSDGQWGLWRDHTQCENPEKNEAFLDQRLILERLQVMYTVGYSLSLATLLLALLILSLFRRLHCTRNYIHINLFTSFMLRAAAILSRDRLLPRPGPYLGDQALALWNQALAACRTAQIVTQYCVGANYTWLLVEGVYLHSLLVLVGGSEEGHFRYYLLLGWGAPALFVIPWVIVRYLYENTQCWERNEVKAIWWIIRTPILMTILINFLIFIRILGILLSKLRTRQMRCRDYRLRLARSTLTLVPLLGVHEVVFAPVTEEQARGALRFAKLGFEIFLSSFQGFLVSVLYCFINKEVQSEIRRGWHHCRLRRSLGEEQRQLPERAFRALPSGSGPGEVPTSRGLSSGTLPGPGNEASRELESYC
Procedure: In vitro biological activity. […] In brief, CHL cells were seeded into 12-well plates (Nünc, Roskilde, Denmark) at a density of 10^5 cells per well and allowed to grow for 48 hours before being loaded with tritiated adenine (2 μCi; TRK311; Amersham, Buckinghamshire, UK). The cells were then incubated at 37° C. for 6 hours in 1 ml DMEM supplemented with 0.5% (w/v) BSA and subsequently washed twice with HBS buffer (pH 7.4). […] The medium was subsequently removed and the cells lysed with 1 ml of 5% TCA containing 0.1 mmol/l unlabelled cyclic AMP and 0.1 mmol/l unlabelled ATP.

[4] = test system: BRIN-BD11 cells; assay: Insulin release from clonal pancreatic BRIN-BD11 cells (Example 6); format: cell-based; details: 5.6 mmol/l glucose, 20 minutes incubation
Procedure: Cells and cell culture. Chinese hamster lung (CHL) fibroblasts stably transfected with the human GIP receptor (Gremlich, S. et al., 1995, Diabetes 44: 1202-1208) were cultured in DMEM tissue culture medium containing 10% (v/v) FBS, 1% (v/v) antibiotics (100 U/ml penicillin, 0.1 mg/ml streptomycin). Clonal pancreatic BRIN-BD11 cells (McClenaghan, N. H. et al., 1996, Diabetes 45: 1132-1140) were cultured using RPMI-1640 culture medium containing 10% (v/v) FBS, 1% (v/v) antibiotics (100 U/ml penicillin, 0.1 mg/ml streptomycin) and 11.1 mmol/l glucose. Cells were maintained at 37° C. in an atmosphere of 5% CO2 and 95% air using an LEEC incubator (Laboratory Technical Engineering, Nottingham, UK).
Insulin-release studies were carried out using clonal pancreatic BRIN-BD11 cells as described previously (O'Harte, F. P. M. et al., 2002, Diabetologia 45: 1281-1291). Briefly, BRIN-BD11 cells were seeded into 24-well plates at a density of 10^5 cells per well, and allowed to attach overnight at 37° C. Acute tests for insulin release were preceded by 40 minutes pre-incubation at 37° C. in 1.0 ml Krebs Ringer bicarbonate buffer supplemented with 1.1 mmol/l glucose. Test incubations were performed in the presence of 5.6 mmol/l glucose with a range of concentrations (10^−13 to 10^−6 mol/l) of GIP and GIP analogues. After 20 minutes incubation, the buffer was removed from each well and aliquots (200 μl) used for measurement of insulin.

[5] = test system: ob/ob mice; assay: Acute metabolic and dose-response effects with glucose in 18 h fasted ob/ob mice; format: in vivo, mouse
Procedure: Animals. Obese diabetic (ob/ob) mice derived from the colony maintained at Aston University, UK were used at 12-17 weeks of age. The genetic background and characteristics of the colony used have been outlined in detail elsewhere (Bailey, C. J. et al., 1982, Int. J. Obesity 6:11-21; Gault, V. A. et al., 2003, J. Endocrinol. 176: 133-141). Animals were housed in an air-conditioned room at 22±2° C. with a 12 hours light: 12 hours dark cycle. Drinking water and standard rodent maintenance diet (Trouw Nutrition, Cheshire, UK) were freely available. All test solutions were administered by i.p. injection in a final volume of 5 ml/kg bw. Blood was collected from the cut tip of the tail vein of conscious mice into chilled fluoride/heparin microcentrifuge tubes immediately prior to injection and at the times indicated in the Figures. Plasma was separated using a Beckman microcentrifuge (Beckman Instruments, UK) at 13,000 g for 30 second and stored at −20° C. prior to glucose and insulin determinations. All animal experiments were carried out in accordance with the UK Animals (Scientific Procedures) Act 1986.
Metabolic and dose-response effects of GIP and N-AcGIP(LysPAL) analogues (at 6.25-25 nmoles/kg bw) following glucose administration (18 mmoles/kg bw) were examined in mice fasted for 18 hours. […] Food intake and body weight were recorded daily. Plasma glucose and insulin concentrations were monitored at 2-6 day intervals. At 14 days, groups of animals were used to evaluate intraperitoneal glucose tolerance (18 mmoles/kg) and insulin sensitivity (50 U/kg). In a separate series, two experimental protocols were employed to examine the possibility of GIP receptor desensitization after 14 days treatment. […] At the end of the 14-day treatment period, pancreatic tissues were excised for measurement of insulin following extraction with 5 ml/g ice-cold acid ethanol (75% ethanol, […], 1.5% HCl). Whole blood was taken for determination of glycated hemoglobin.
Biochemical analyses. Plasma glucose was assayed by an automated glucose oxidase procedure (Stevens, J. F., 1971, Clin. Chem. Acta 32:199-201) using a Beckman Glucose Analyser II (Beckman, Galway, Ireland). Plasma insulin was determined by dextran-charcoal RIA as described previously (Flatt, P. R. et al., 1981, Diabetologia 20: 573-577). Glycated hemoglobin was determined using cation-exchange columns (Sigma, Poole, Dorset, UK) with measurement of absorbance (415 nm) in wash and eluting buffers using a VersaMax microplate spectrophotometer (Molecular Devices, Wokingham, Berkshire, UK).
Statistics. Results are expressed as mean±SEM. Data were compared using the unpaired Student's t-test. Where appropriate, data were compared using repeated measures ANOVA or one-way ANOVA, followed by the Student-Newman-Keuls post hoc test. Incremental areas under plasma glucose and insulin curves (AUC) were calculated using a computer-generated program employing the trapezoidal rule (Burington, R. S., 1973, Handbook of Mathematical Tables and Formulae, McGraw-Hill, New York) with baseline subtraction.

`CCCCCCCCCCCCCCCC(=O)NCCCC[C@H](NC(=O)[C@H](CC(=O)O)NC(=O)[C@H](CCSC)NC(=O)[C@H](C)NC(=O)[C@@H](NC(=O)[C@H](CO)NC(=O)[C@H](Cc1ccc(O)cc1)NC(=O)[C@H](CC(=O)O)NC(=O)[C@H](CO)NC(=O)[C@@H](NC(=O)[C@H](Cc1ccccc1)NC(=O)[C@@H](NC(=O)CNC(=O)[C@H](CCC(=O)O)NC(=O)[C@H](C)NC(=O)[C@H](Cc1ccc(O)cc1)NC(C)=O)[C@@H](C)O)[C@@H](C)CC)[C@@H](C)CC)C(=O)N[C@H](C(=O)N[C@@H](Cc1c[nH]cn1)C(=O)N[C@@H](CCC(N)=O)C(=O)N[C@@H](CCC(N)=O)C(=O)N[C@@H](CC(=O)O)C(=O)N[C@@H](Cc1ccccc1)C(=O)N[C@H](C(=O)N[C@@H](CC(N)=O)C(=O)N[C@@H](Cc1c[nH]c2ccccc12)C(=O)N[C@@H](CC(C)C)C(=O)N[C@@H](CC(C)C)C(=O)N[C@@H](C)C(=O)N[C@@H](CCC(N)=O)C(=O)N[C@@H](CCCCN)C(=O)NCC(=O)N[C@@H](CCCCN)C(=O)N[C@@H](CCCCN)C(=O)N[C@@H](CC(N)=O)C(=O)N[C@@H](CC(=O)O)C(=O)N[C@@H](Cc1c[nH]c2ccccc12)C(=O)N[C@@H](CCCCN)C(=O)N[C@@H](Cc1c[nH]cn1)C(=O)N[C@@H](CC(N)=O)C(=O)N[C@H](C(=O)N[C@H](C(=O)N[C@@H](CCC(N)=O)C(=O)O)[C@@H](C)O)[C@@H](C)CC)C(C)C)[C@@H](C)CC` [N-AcGIP(LysPAL^16)] showed a remaining at 2 h, 2 mmol/l ([1]; 2 h) of 100%, a remaining at 8 h, 2 mmol/l ([1]; 8 h) of 100% and a remaining at 24 h, 2 mmol/l ([1]; 24 h) of 100%. For the same molecule, the “% Intact peptide remaining after time (hours)” value ([2]; 0 h) was 100%, the “% Intact peptide remaining after time (hours)” value ([2]; 24 h) was “remained completely intact” and the EC50 [3] was 0.0121 µM. The “insulin secretion compared to control” value [4] was “significantly stimulated glucose-induced insulin secretion”, the “enhancement of overall glucose-mediated insulin release (AUC) compared to native GIP” value ([5]; 25 nmoles/kg i.p. with glucose) was 1.5 fold and the “overall glucose excursion compared to native GIP” value ([5]; 25 nmoles/kg i.p. with glucose) was “decreased the overall glucose excursion”. For the same molecule, the “overall glucose excursion (glucose AUC) compared to glucose alone” value ([5]; 25 nmoles/kg i.p. with glucose 18 mmoles/kg, 0-60 min) was “significantly lowered glucose AUC”.
